From publication PMC6707405, “Screening Bioactive Compounds of Siraitia grosvenorii by Immobilized β2-Adrenergic Receptor Chromatography and Druggability Evaluation” (Frontiers in Pharmacology, 2019)
Read-outs that look alike come from different tables or passages of the source. One block for each compound: values may come before it.

Key:
[1] = system: rat tracheal smooth muscle pre-contracted by high K+ solution; test: Relaxation of isolated rat tracheal strips pre-contracted by high K+ solution, with or without ICI 118551; format: cell-based; settings: 0.1 μM to 1.0 mM, high K+ (60 mM) pre-contracted
Experimental: The potential β2-AR-mediating relaxant mechanisms of the compound were also evaluated in the absence and presence of a specific inhibitor. This was performed with the scarification of rats weighing 250–300 g by exsanguination from the abdominal aorta. We collected the tracheal tissues between the larynx and the lungs and immediately immersed them in cold oxygenated Krebs solution (118 mM NaCl, 4.8 mM KCl, 2.5 mM CaCl2, 1.2 mM MgSO4, 25 mM NaHCO3, 1.2 mM KH2PO4, and 9.8 mM glucose; pH 7.4). After the removal of adhesive tissues, we spirally isolated the tracheal segment with three cartilage rings to assay the tracheal strip reactivity. Such strips were mounted onto two L-shaped stainless-steel holders connected with a force–displacement transducer. The isometric tension was determined in a tissue bath by a PowerLab data acquisition system.
We aerated the pre-warmed Krebs solution (37°C) with a gas mixture of 95% O2 and 5% CO2. At initial tests, the tracheal strips with tensions of 1.0-g mass were equilibrated for 60 min. The resulting strips were stimulated with high-potassium (K^+) solution (63 mM NaCl, 60 mM KCl, 2.5 mM CaCl2, 1.2 mM MgSO4, 25 mM NaHCO3, 1.2 mM KH2PO4, and 9.8 mM glucose; pH 7.4) to evoke a contractile response in the presence or absence of ICI 118551 (10 μM). […]

[2] = Stability of mogroside V in rat plasma (QC samples, HPLC-MS/MS); format: in vitro ADME; settings: for Short term Stability (%): room temperature 14 h; for Long term Stability (%): −20°C 1 month; for Freeze–thaw Stability (%): three freeze (−20°C) and thaw cycles
Experimental: The stability of mogroside V in plasma was evaluated at three QC levels in six replicates under varieties of storing and processing conditions. The results of the peak area of QC samples were compared with those from freshly prepared standard samples. The QC samples with recoveries of 85–115% were defined as having good stability under the desired conditions. Short-term stability was assessed after QC samples were saved at room temperature for 14 h. Subsequently, freeze–thaw stability was assessed after three freeze (−20°C) and thaw (room temperature) cycles of QC samples. Long-term stability was examined after QC samples were saved at −20°C for 1 month.

[3] = Pharmacokinetic study in rats after oral administration (HPLC-MS/MS); format: in vivo, Sprague–Dawley (SD) rats; settings: mogroside V 200 mg/kg or LHG extract 12.5 ml/kg
Experimental: Male Sprague–Dawley (SD) rats (240 ± 20 g) were purchased from the Experimental Animal Center of Xi’an Jiaotong University (Xi’an, China). The animals were maintained in a room under controlled temperature (24 ± 1°C) and humidity (50–70%) with 12-h light/dark cycle. The rats were fed with standard laboratory food and acclimatized to the environment for a week before the experiment. All animals were treated in accordance with the Guide for the Care and Use of Laboratory Animals under the approval of the Animal Experimentation Ethics Committee at Northwest University.
All the plasma samples were analyzed on an Inertsil ODS-3-C18 column (5 μm, 4.6 mm × 150 mm). The mobile phase for quantitative determination of mogroside V in rat plasma consisted of 29% acetonitrile/0.2% (v/v) formic acid at a flow rate of 0.6 ml/min. The injection volume was 20 μl under a detection wavelength of 203 nm.
The optimized mass conditions include the following: capillary voltage of 3,500 V, drying gas of 8 L/min at 350°C, nebulizer pressure of 40 psi at 350°C, and ion scan range of 100–2,000 amu. Under these conditions, multi-reaction monitoring (MRM) mode was carried out to specifically and sensitively detect the mogroside V. The mass transitions were m/z 1,285.6 → 1,123.6 for mogroside V and m/z 931.3 → 637.5 for IS (notoginsenoside R1).
An aliquot of 10 μl of IS working solution was added into an aliquot of 90 μl of plasma samples. Vortexing the mixture for 2.0 min, we centrifuged the plasma for 10 min with a speed of 12,000 rpm at a temperature of 4°C. The supernatant was collected and transferred to another 0.5-ml centrifuge tube and then blow dried with nitrogen. We applied 200 μl of methanol to redissolve it, which was used for analysis.
Eighteen rats were randomly divided into three groups of six for each group, including blank control, mogroside V, and LHG groups. The blank group was orally administered with normal saline. The other two groups were administered with mogroside V at a dose of 200 mg/kg and LHG aqueous extraction at a dose of 12.5 ml/kg (equivalent to 200 mg/kg mogroside V). Blood samples were collected in heparin sodium vacutainers at post-dose 5, 15, 30, 45, 60, 90, 120, 240, 360, 480, and 720 min. The plasma was pre-treated by centrifugation and frozen at −80°C until further analysis. The pharmacokinetic parameters including the area under curve (AUC0–720, and AUC0–∞), the maximum plasma concentration (Cmax), the time to achieve maximum plasma concentration (T max), and the elimination half-life (t 1/2z) were calculated by Drug and Statistics 3.0.0 software (DAS, T. C. M., Shanghai, China). All data were recorded as the mean ± standard deviation (SD), and the 95% confidence interval was also estimated when necessary.

[4] = target: immobilized β2-AR (Homo sapiens, UniProt P07550)
[5] = cited from earlier work
[6] = system: cough of mice; settings: ref Liu et al., 2007; cited from earlier work
[7] = system: mice trachea; parameters: method as in Liu et al., 2007; settings: ref Liu et al., 2007; cited from earlier work
[8] = system: ileum and trachea; parameters: method as in Liu et al., 2007; settings: histamine-induced; ref Liu et al., 2007; cited from earlier work
[9] = dose 200 mg/kg, ref Qin et al. (2006); cited from earlier work
[10] = male, Sprague-Dawley, rat, in vivo, mogroside V in plasma

Sequence of immobilized β2-AR (P07550 whole entry): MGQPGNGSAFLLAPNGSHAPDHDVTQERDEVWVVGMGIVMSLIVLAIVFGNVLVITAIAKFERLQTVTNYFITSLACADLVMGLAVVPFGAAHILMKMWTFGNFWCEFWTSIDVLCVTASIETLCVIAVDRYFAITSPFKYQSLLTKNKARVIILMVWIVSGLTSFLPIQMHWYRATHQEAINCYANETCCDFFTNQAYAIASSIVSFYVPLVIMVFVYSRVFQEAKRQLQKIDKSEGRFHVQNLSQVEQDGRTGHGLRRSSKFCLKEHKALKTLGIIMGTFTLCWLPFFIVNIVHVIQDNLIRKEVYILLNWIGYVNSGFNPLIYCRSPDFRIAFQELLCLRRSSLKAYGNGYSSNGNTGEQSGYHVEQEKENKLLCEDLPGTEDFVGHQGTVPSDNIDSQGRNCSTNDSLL

SMILES: C[C@H](CC[C@@H](O[C@@H]1O[C@H](CO[C@@H]2O[C@H](CO)[C@@H](O)[C@H](O)[C@H]2O)[C@@H](O)[C@H](O)[C@H]1O[C@@H]1O[C@H](CO)[C@@H](O)[C@H](O)[C@H]1O)C(C)(C)O)[C@H]1CC[C@@]2(C)[C@@H]3CC=C4[C@@H](CC[C@H](O[C@@H]5O[C@H](CO[C@@H]6O[C@H](CO)[C@@H](O)[C@H](O)[C@H]6O)[C@@H](O)[C@H](O)[C@H]5O)C4(C)C)[C@]3(C)[C@H](O)C[C@]12C [Mogroside V]
relaxation of tracheal strips ([1]; absence of ICI 118551): concentration-dependent manner
relaxation of tracheal strips ([1]; presence of ICI 118551 (10 μM)): disappeared
Short term Stability (%) ([2]; rat plasma, 30 ng/ml added): 94.8%
Long term Stability (%) ([2]; rat plasma, 30 ng/ml added): 94.4%
Short term Stability (%) ([2]; rat plasma, 500 ng/ml added): 94.8%
Freeze–thaw Stability (%) ([2]; rat plasma, 500 ng/ml added): 95.4%
Long term Stability (%) ([2]; rat plasma, 500 ng/ml added): 93.8%
Short term Stability (%) ([2]; rat plasma, 5,000 ng/ml added): 93.2%
Freeze–thaw Stability (%) ([2]; rat plasma, 5,000 ng/ml added): 96.6%
Long term Stability (%) ([2]; rat plasma, 5,000 ng/ml added): 92.2%
Cmax [3, 10]: 1330 ng/mL
Tmax [3, 10]: 0.75 h
half-life ([3]; male, Sprague-Dawley, rat, in vivo, mogroside V in plasma, read-out: t1/2z): 2.31 ± 0.22 h
peak plasma concentration [3]: 1,330.6 ± 132.2 ng/ml
retention time of LHG extract peak on immobilized β2-AR column, identified as mogroside V ([4]; ammonium acetate buffer (5 mM, pH = 7.4), 0.2 ml/min, 203 nm, void time 0.7 min): 4.3 min
detection in rat plasma ([5]; oral administration, dose increased to 5 mg/kg, ref Luo, 2017): disappears
detection in rat plasma ([5]; tail intravenous injection (1.12 or 2.0 mg/kg) and intraperitoneal administration (1.12 mg/kg), ref Zhou et al., 2018): detectable
cough times of mice [6]: reducing the cough times
incubation period for cough of mice [6]: prolonged
phenol red excretion of mice trachea [7]: effective for extending
spasmodic contraction of the ileum and trachea caused by histamine [8]: obvious capability to antagonize
toxicity after oral administration [9]: nontoxic

SMILES: O=N[O-].[Na+] [sodium nitrite, Sodium nitrite]
retention time on immobilized β2-AR column [4]: 0.7 min

retention time on immobilized β2-AR column ([4]; mobile phase ammonium acetate (5 mM, pH = 7.4), each injected three times): 1.0 min
SMILES: COc1cc2nc(N3CCN(C(=O)C4CCCO4)CC3)nc(N)c2cc1OC (stereo not drawn) [terazosin]
